# Test results taken from patent US20220249364A1, “Designed Inhibitors of Tight Junction Formation” (University of Rochester, priority 2019, published 2022).
# No end group written: not given here.
# Columns and labels:
# [1] = test system: 16HBE cells; assay: TER measurement of tight junction disruption in 16HBE cells; assay type: cell-based, human; conditions: 12 and 96 μM, over 24 hours
# Procedure: PHFK were isolated from discarded foreskin tissue. Isolation and propagation procedures for both PHFK and 16HBE cells were done as previously described (Poumay, Roland, Leclercq-Smekens, & Leloup, 1994; Saatian et al., 2013).
# 10 mgs of synthesized TJDP (RS SYNTHESIS) was dissolved in 100 μl of DMSO (SIGMA). Dissolved peptide was then diluted in pre-warmed (55 ° C.) DMSO/PLURONIC F127® (SPECTRUM) solution formulated in PBS (0.6% / 0.12%, respectively). This solution was heated at 55° C. for 30 minutes then homogenized into detergent using a water bath sonicator (BRANSON 2200) for 10 minutes and vortexed for 1 minute. Peptide was stored at 4° C. until use.
# TER and paracellular flux were done as previously published (De Benedetto, Rafaels, et al., 2011). […] 2 μM of fluorescently-labeled antibody (palivizumab) was added to cells after 24 hours of exposure to TJDP and paracellular flux was measured 30 minutes and 18 hours later.
# Initial experiments employed the human bronchial epithelial cell line, 16HBE since this cell line is known for its robust TJ formation (Saatian et al., 2013). […] The honeycomb fluorescence pattern of these proteins on the cell surface is a hallmark of a barrier competent TJ (Furuse, Fujita, Hiiragi, Fujimoto, & Tsukita, 1998; Furuse et al., 1993). […] The antibody diffusion was measured at 30 min to reduce the likelihood that active transcellular transport was measured.
# [2] = test system: 16HBE cells; assay: WST-1 cell viability assay in 16HBE cells; assay type: cell-based, human; conditions: 50 μM, highest concentration tested
# Procedure: (§1) For cytotoxicity measurements, cells were plated at a density of 75,000 cells/well in a 96-well plate and grown to confluence (2 days). Cells were then exposed to vehicle or TJDP and viability was measured at 24, 48 and 96 hours. WST-1 reagent (ROCHE) was diluted 20-fold into each well, and cells were incubated at 37° C. Duplicate readings were taken at 0.5 and 1 hour after addition using a THERMO MULTISKAN EX plate reader (A450—background A620). Media only wells were subtracted and values were normalized to media treated controls.
# [3] = test system: primary human foreskin keratinocytes (PHFK); assay: WST-1 cell viability assay in PHFK; assay type: cell-based
# Procedure: as §1
Substance,effect on TER values (control peptide) [1],viability (WST-1) [2],"toxicity (WST-1) ([3]; 30 μM, p<0.05)",cell death (WST-1) ([3]; lower concentrations with robust inhibition of TJ formation)
(FKFE)2,did not affect TER values,–,–,–
SILTGVSTLDQSLKQLSNFSQAVSTQSSR [Peptide 2],–,no loss of viability,Modest toxicity,no appreciable cell death
SSVSQSTGQIQSKVFDSLLNLSSTLQATR [Peptide 1],–,no loss of viability,–,–
